Measurements reported in the NIST ThermoML archive (doi:10.1021/acs.jced.8b00537).

Assay: xn = mol fraction of the nth substance listed
Settings: 100 kPa, Liquid; for viscosity: Capillary tube (Ostwald / Ubbelohde) method; for speed of sound: Frequency=3 MHz, Single path-length method; for mass density: Vibrating tube method

O=S(=O)([N-]S(=O)(=O)C(F)(F)F)C(F)(F)F.On1cc[n+](O)c1 [1,3-dihydroxyimidazolium bis(trifluoromethylsulfonyl)imide] + CCCO
Settings	mass density [kg/m3]	speed of sound [m/s]	viscosity [mPa·s]
293.15 K, x1 = 0.0999	1039	1192.5	6.428
293.15 K, x1 = 0.1994	1207	1175.2	10.56
293.15 K, x1 = 0.2993	1333	1166.5	18.74
293.15 K, x1 = 0.3992	1430	1167	31.05
293.15 K, x1 = 0.4985	1510	1170.2	46.71
293.15 K, x1 = 0.5999	1576	1175.3	65.75
293.15 K, x1 = 0.6989	1631	1182.6	99.34
293.15 K, x1 = 0.7996	1680	1190.1	120.22
293.15 K, x1 = 0.8973	1719	1198.4	184.26
293.15 K, x1 = 1	1746	1208.2	238.6
298.15 K, x1 = 0.0999	1034	1177.8	5.606
298.15 K, x1 = 0.1994	1202	1161.9	9.087
298.15 K, x1 = 0.2993	1328	1154	15.55
298.15 K, x1 = 0.3992	1425	1155	25.3
298.15 K, x1 = 0.4985	1505	1158.3	37.27
298.15 K, x1 = 0.5999	1570	1163.5	51.4
298.15 K, x1 = 0.6989	1625	1171	76.1
298.15 K, x1 = 0.7996	1674	1178.4	90.44
298.15 K, x1 = 0.8973	1713	1186.7	135.12
298.15 K, x1 = 1	1740	1196.6	171.83
303.15 K, x1 = 0.0999	1030	1163.2	4.921
303.15 K, x1 = 0.1994	1197	1148.7	7.864
303.15 K, x1 = 0.2993	1323	1141.6	13.07
303.15 K, x1 = 0.3992	1419	1143.1	20.93
303.15 K, x1 = 0.4985	1499	1146.7	30.21
303.15 K, x1 = 0.5999	1564	1152	40.94
303.15 K, x1 = 0.6989	1620	1159.5	59.33
303.15 K, x1 = 0.7996	1668	1166.9	–
303.15 K, x1 = 0.8973	1707	1175.2	101.71
303.15 K, x1 = 1	1735	1185.2	127.52
308.15 K, x1 = 0.0999	1025	1148.9	4.34
308.15 K, x1 = 0.1994	1192	1135.7	6.844
308.15 K, x1 = 0.2993	1318	1129.4	11.09
308.15 K, x1 = 0.3992	1414	1131.4	17.59
308.15 K, x1 = 0.4985	1494	1135.2	24.91
308.15 K, x1 = 0.5999	1559	1140.7	33.19
308.15 K, x1 = 0.6989	1614	1148.3	47.17
308.15 K, x1 = 0.7996	1662	1155.7	54.77
308.15 K, x1 = 0.8973	1702	1164	78.32
308.15 K, x1 = 1	1729	1174.1	96.92
313.15 K, x1 = 0.0999	1020	1134.6	3.849
313.15 K, x1 = 0.1994	1187	1122.8	5.991
313.15 K, x1 = 0.2993	1313	1117.3	9.541
313.15 K, x1 = 0.3992	1409	1119.8	14.92
313.15 K, x1 = 0.4985	1489	1123.9	20.85
313.15 K, x1 = 0.5999	1553	1129.5	27.38
313.15 K, x1 = 0.6989	1608	1137.2	37.93
313.15 K, x1 = 0.7996	1657	1144.6	43.92
313.15 K, x1 = 0.8973	1696	1153	61.38
313.15 K, x1 = 1	1723	1163.1	75.56
318.15 K, x1 = 0.0999	1016	1120.5	3.434
318.15 K, x1 = 0.1994	1182	1110.1	5.275
318.15 K, x1 = 0.2993	1308	1105.4	8.279
318.15 K, x1 = 0.3992	1404	1108.3	12.81
318.15 K, x1 = 0.4985	1483	1112.7	17.64
318.15 K, x1 = 0.5999	1548	1118.5	22.86
318.15 K, x1 = 0.6989	1603	1126.3	31.31
318.15 K, x1 = 0.7996	1651	1133.7	35.76
318.15 K, x1 = 0.8973	1690	1142.1	49.13
318.15 K, x1 = 1	1717	1152.3	59.8
323.15 K, x1 = 0.0999	1011	1106.4	3.072
323.15 K, x1 = 0.1994	1178	1097.4	4.675
323.15 K, x1 = 0.2993	1303	1093.6	7.234
323.15 K, x1 = 0.3992	1398	1097	11.09
323.15 K, x1 = 0.4985	1478	1101.6	15.11
323.15 K, x1 = 0.5999	1542	1107.6	19.34
323.15 K, x1 = 0.6989	1597	1115.5	25.89
323.15 K, x1 = 0.7996	1645	1123	29.52
323.15 K, x1 = 0.8973	1684	1131.4	39.97
323.15 K, x1 = 1	1711	1141.6	48.29
328.15 K, x1 = 0.0999	1006	1092.4	2.759
328.15 K, x1 = 0.1994	1173	1084.9	4.171
328.15 K, x1 = 0.2993	1298	1082	6.368
328.15 K, x1 = 0.3992	1393	1085.8	9.679
328.15 K, x1 = 0.4985	1472	1090.7	13.05
328.15 K, x1 = 0.5999	1537	1096.8	16.53
328.15 K, x1 = 0.6989	1592	1104.8	21.88
328.15 K, x1 = 0.7996	1640	1112.3	24.73
328.15 K, x1 = 0.8973	1679	1120.8	32.99
328.15 K, x1 = 1	1705	1131.1	39.57
333.15 K, x1 = 0.0999	1002	1078.5	2.491
333.15 K, x1 = 0.1994	1168	1072.4	3.742
333.15 K, x1 = 0.2993	1293	1070.4	5.644
333.15 K, x1 = 0.3992	1388	1074.7	8.509
333.15 K, x1 = 0.4985	1467	1080	11.37
333.15 K, x1 = 0.5999	1532	1086.1	14.29
333.15 K, x1 = 0.6989	1586	1094.2	18.68
333.15 K, x1 = 0.7996	1634	1101.8	20.94
333.15 K, x1 = 0.8973	1673	1110.3	27.57
333.15 K, x1 = 1	1700	1120.7	32.88
338.15 K, x1 = 0.0999	997	1064.5	2.255
338.15 K, x1 = 0.1994	1163	1060.1	3.375
338.15 K, x1 = 0.2993	1288	1059	5.034
338.15 K, x1 = 0.3992	1383	1063.7	7.522
338.15 K, x1 = 0.4985	1462	1069.3	9.989
338.15 K, x1 = 0.5999	1526	1075.6	12.46
338.15 K, x1 = 0.6989	1581	1083.8	16.12
338.15 K, x1 = 0.7996	1628	1091.5	17.87
338.15 K, x1 = 0.8973	1667	1100	23.34
338.15 K, x1 = 1	1694	1110.4	27.69
343.15 K, x1 = 0.0999	992	1050.7	2.051
343.15 K, x1 = 0.1994	1158	1048	3.057
343.15 K, x1 = 0.2993	1283	1047.8	4.514
343.15 K, x1 = 0.3992	1378	1052.8	6.692
343.15 K, x1 = 0.4985	1456	1058.9	8.831
343.15 K, x1 = 0.5999	1521	1065.1	10.95
343.15 K, x1 = 0.6989	1575	1073.5	14.03
343.15 K, x1 = 0.7996	1623	1081.2	15.41
343.15 K, x1 = 0.8973	1662	1089.8	19.94
343.15 K, x1 = 1	1688	1100.2	23.59
